BindingDB's records for doi:10.7270/Q2MP51PC (Pcmd, 2008)

Molecular target: T1, Complement C1s subcomponent (Homo sapiens, UniProt P09871)
T1 sequence (P09871 whole entry): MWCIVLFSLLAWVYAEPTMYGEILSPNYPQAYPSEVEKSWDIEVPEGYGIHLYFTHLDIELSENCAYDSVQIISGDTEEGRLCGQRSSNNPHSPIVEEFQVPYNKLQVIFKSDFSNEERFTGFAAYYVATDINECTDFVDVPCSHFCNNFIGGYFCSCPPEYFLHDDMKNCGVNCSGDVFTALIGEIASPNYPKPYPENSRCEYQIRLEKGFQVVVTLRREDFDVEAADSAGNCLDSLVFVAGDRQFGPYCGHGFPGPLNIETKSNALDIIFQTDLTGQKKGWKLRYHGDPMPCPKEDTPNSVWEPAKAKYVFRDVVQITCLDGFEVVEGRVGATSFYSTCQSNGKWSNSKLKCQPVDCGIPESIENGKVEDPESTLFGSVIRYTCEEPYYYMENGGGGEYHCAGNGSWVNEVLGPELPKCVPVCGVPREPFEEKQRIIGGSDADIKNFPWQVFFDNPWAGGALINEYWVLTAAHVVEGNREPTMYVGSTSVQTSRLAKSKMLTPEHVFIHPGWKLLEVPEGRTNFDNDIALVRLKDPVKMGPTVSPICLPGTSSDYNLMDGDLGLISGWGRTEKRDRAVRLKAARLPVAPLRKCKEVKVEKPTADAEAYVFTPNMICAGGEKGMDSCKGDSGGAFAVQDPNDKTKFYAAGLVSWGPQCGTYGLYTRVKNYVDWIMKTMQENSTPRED
Assay: concentration-response of complement C1s inhibitors – biochemical, dose response (AID 787)

Row | Compound | IC50
1 | Cc1ccc(S(=O)(=O)n2nc(OC(=O)c3cccs3)cc2N)cc1 | > 50 µM
2 | CCOC(=O)c1c(C)n(C(=O)c2ccco2)c(=O)n1C(=O)c1ccco1 | 8.54 µM
3 | C#CCOC(=O)c1ccccc1C(=O)n1nnc2ccccc21 | 4.26 µM
4 | CCSc1ccccc1C(=O)n1nnc2ccccc21 | 31 µM
5 | O=C(c1ccc2c(c1)OCO2)n1nnc2ccccc21 | 0.85 µM
6 | O=C(O)[C@@H](c1ccccc1)N1Cc2ccccc2C1=O | > 50 µM
7 | O=C(O)COCc1nc2ccccc2[nH]1 | > 50 µM
8 | COc1cccc(C2=Nc3nnnn3C(c3cccc(OC)c3OC)C2)c1 (stereo not given) | > 50 µM
9 | COc1cccc(N2C(=O)N(c3ccccc3Cl)C3CS(=O)(=O)CC32)c1 (stereo not given) [1-(2-chlorophenyl)-3-(3-methoxyphenyl)tetrahydro-1H-thieno[3,4-d]imidazol-2(3H)-one 5,5-dioxide] | > 50 µM
10 | CCN1CCN(c2ccc(-n3c(C)nc4c(cnn4-c4ccccc4Cl)c3=O)cc2)CC1 [1-(2-chlorophenyl)-5-[4-(4-ethyl-1-piperazinyl)phenyl]-6-methyl-4-pyrazolo[3,4-d]pyrimidinone] | > 50 µM
11 | COc1ccc(-c2nc(SC)n(C(=O)c3ccco3)n2)cc1 [1-(2-furoyl)-3-(4-methoxyphenyl)-5-(methylthio)-1H-1,2,4-triazole] | 15.6 µM
12 | O=C(c1ccco1)N1C(=O)c2cccc3cccc1c23 [1-(2-furoyl)benzo[cd]indol-2(1H)-one] | > 50 µM
13 | CCOC(=O)C1CCN(C(=O)c2cc(OCC)c(OCC)c(OCC)c2)CC1 [1-(3,4,5-triethoxybenzoyl)isonipecotic acid ethyl ester] | > 50 µM
14 | O=C(c1csc2c1CCCC2)n1cccn1 [1-(4,5,6,7-tetrahydro-1-benzothien-3-ylcarbonyl)-1H-pyrazole] | 3.83 µM
15 | CCOC(=O)c1nnn(-c2nonc2N)c1CN(C)C1CCCCC1 [1-(4-amino-1,2,5-oxadiazol-3-yl)-5-[[cyclohexyl(methyl)amino]methyl]-4-triazolecarboxylic acid ethyl ester] | > 50 µM
16 | CCOc1ccc(-n2c(O)cc(N3CCN(c4ccccc4F)CC3)c2O)cc1 [1-(4-ethoxyphenyl)-3-[4-(2-fluorophenyl)-1-piperazinyl]-2,5-pyrrolidinedione] | > 50 µM
17 | Cc1ccc(Cn2ncc3c(N4CCN(c5ccccc5C)CC4)ncnc32)cc1 [1-(4-methylbenzyl)-4-[4-(2-methylphenyl)-1-piperazinyl]-1H-pyrazolo[3,4-d]pyrimidine] | > 50 µM
18 | CC(C)CN(CC(C)C)S(=O)(=O)N1CCC(C(=O)NCc2ccc(F)cc2)CC1 [1-(diisobutylsulfamoyl)-N-(4-fluorobenzyl)isonipecotamide] | > 50 µM
19 | CCOC(=O)C1CCN(C(=O)CSc2ccccc2)CC1 [1-[1-oxo-2-(phenylthio)ethyl]-4-piperidinecarboxylic acid ethyl ester] | > 50 µM
20 | COc1cc(-c2nnc(SCC(=O)c3cc(C)n(CC4CCCO4)c3C)o2)cc(OC)c1OC (stereo not given) [1-[2,5-dimethyl-1-(2-oxolanylmethyl)-3-pyrrolyl]-2-[[5-(3,4,5-trimethoxyphenyl)-1,3,4-oxadiazol-2-yl]thio]ethanone] | > 50 µM
21 | CCCC(=O)n1nc(-c2ccco2)nc1SCc1ccccc1 [1-[3-(2-furanyl)-5-(phenylmethylthio)-1,2,4-triazol-1-yl]-1-butanone] | > 50 µM
22 | CCC(=O)n1nc(-c2ccco2)nc1SCc1ccccc1 [1-[3-(2-furanyl)-5-(phenylmethylthio)-1,2,4-triazol-1-yl]-1-propanone] | > 50 µM
23 | COc1ccc(C(=O)n2nnc3ccccc32)cc1Br [1-benzotriazolyl-(3-bromo-4-methoxyphenyl)methanone] | 5.59 µM
24 | Cn1c(=O)c2[nH]c(NCC3CCCO3)nc2n(-c2ccccc2)c1=O (stereo not given) [1-methyl-8-(2-oxolanylmethylamino)-3-phenyl-7H-purine-2,6-dione] | > 50 µM
25 | O=C(Nc1cccc(F)c1)c1c(F)c(F)c(F)c(F)c1F [2,3,4,5,6-pentafluoro-N-(3-fluorophenyl)benzamide] | > 50 µM

Row | Compound | IC50
26 | Cc1nc(CNS(=O)(=O)c2cc(C)c(C)cc2C)cs1 [2,4,5-trimethyl-N-[(2-methyl-1,3-thiazol-4-yl)methyl]benzenesulfonamide] | > 50 µM
27 | O=C1CCCC2=NC(Nc3nc4ccccc4o3)=NC3(CCCCC3)C12 (stereo not given) [2-(1,3-benzoxazol-2-ylamino)-5-spiro[1,6,7,8-tetrahydroquinazoline-4,1'-cyclohexane]one] | > 50 µM
28 | COCCn1c(C)cc(C(=O)CSc2nc3ccccc3o2)c1C [2-(1,3-benzoxazol-2-ylsulfanyl)-1-[1-(2-methoxyethyl)-2,5-dimethyl-pyrrol-3-yl]ethanone] | > 50 µM
29 | Cc1sc2nc(-c3ccco3)oc(=O)c2c1C [2-(2-furanyl)-5,6-dimethyl-4-thieno[2,3-d][1,3]oxazinone] | > 50 µM
30 | Cc1c(NC(=O)C2Cc3ccccc3CN2C(=O)c2ccco2)c(=O)n(-c2ccccc2)n1C (stereo not given) [2-(2-furoyl)-N-(3-keto-1,5-dimethyl-2-phenyl-3-pyrazolin-4-yl)-3,4-dihydro-1H-isoquinoline-3-carboxamide] | > 50 µM
31 | Cc1cc(NS(=O)(=O)c2ccc(NC(=O)COc3ccccc3C(C)C)cc2)no1 [2-(2-isopropylphenoxy)-N-[4-[(5-methylisoxazol-3-yl)sulfamoyl]phenyl]acetamide] | > 50 µM
32 | COc1ccc(CC(=O)Nc2cccc(-c3nnc(-c4cccc(C)c4)o3)c2)cc1OC [2-(3,4-dimethoxyphenyl)-N-[3-[5-(3-methylphenyl)-1,3,4-oxadiazol-2-yl]phenyl]acetamide] | > 50 µM
33 | CC(=O)c1cn(CC(=O)NCc2ccc3c(c2)OCO3)c2ccccc12 [2-(3-acetyl-1-indolyl)-N-(1,3-benzodioxol-5-ylmethyl)acetamide] | > 50 µM
34 | COC(=O)COc1cccc(NC(=O)c2ccccc2)c1 [2-(3-benzamidophenoxy)acetic acid methyl ester] | > 50 µM
35 | Cc1cc(C)c2c(CC(=O)NCc3ccco3)coc2c1 [2-(4,6-dimethyl-1-benzofuran-3-yl)-N-(2-furylmethyl)acetamide] | > 50 µM
36 | CN(C)c1ccc(C(=O)c2ccccc2C(=O)O)c(O)c1 [2-(4-Dimethylamino-2-hydroxy-benzoyl)-benzoic acid] | > 50 µM
37 | O=C(O)CCCC(=O)Nc1ccccc1C(=O)O [2-(4-carboxybutanoylamino)benzoic acid] | > 50 µM
38 | COc1ccc(NC(=O)CSC2CCCCC2)cc1 [2-(cyclohexylthio)-N-(4-methoxyphenyl)acetamide] | > 50 µM
39 | O=C(Cc1ccc(-c2ccccc2)cc1)NCCN1CCOCC1 [2-Biphenyl-4-yl-N-(2-morpholin-4-yl-ethyl)-acetamide] | > 50 µM
40 | O=c1oc(-c2ccco2)nc2ccccc12 [2-Furan-2-yl-benzo[d][1,3]oxazin-4-one] | 4.62 µM
41 | Cc1nn(C)c(C)c1NC(=O)c1ccnn1C [2-Methyl-2H-pyrazole-3-carboxylic acid (1,3,5-trimethyl-1H-pyrazol-4-yl)-amide] | > 50 µM
42 | CC(C)(C)NC(=O)C(c1ccco1)N(Cc1ccc2c(c1)OCO2)C(=O)Cn1nnc2ccccc21 (stereo not given) [2-[1,3-benzodioxol-5-ylmethyl-[2-(1-benzotriazolyl)-1-oxoethyl]amino]-N-tert-butyl-2-(2-furanyl)acetamide] | > 50 µM
43 | CCOc1ccc(NC(=O)CN2CCN(CC(=O)Nc3ccc4c(c3)OCO4)CC2)cc1 [2-[4-[2-(1,3-benzodioxol-5-ylamino)-2-keto-ethyl]piperazino]-N-p-phenetyl-acetamide] | > 50 µM
44 | CCOC(=O)COc1ccc(S(=O)(=O)NCCC2=CCCCC2)cc1 [2-[4-[2-(1-cyclohexenyl)ethylsulfamoyl]phenoxy]acetic acid ethyl ester] | > 50 µM
45 | O=C(CN1CCN(CC(=O)Nc2ccccn2)CC1)Nc1ccccn1 [2-[4-[2-keto-2-(2-pyridylamino)ethyl]piperazino]-N-(2-pyridyl)acetamide] | > 50 µM
46 | CCOC(=O)Cc1nnc(NC(=O)C(CC)Sc2nnc3c4ccccc4n(C)c3n2)s1 (stereo not given) [2-[5-[2-[(5-methyl-[1,2,4]triazin[5,6-b]indol-3-yl)thio]butanoylamino]-1,3,4-thiadiazol-2-yl]acetic acid ethyl ester] | > 50 µM
47 | COC(=O)Cc1n[nH]c2c1C1(C(=O)N(Cc3ccccc3)c3ccccc31)C(C#N)C(=N)O2 (stereo not given) [2-[6-amino-5-cyano-2'-oxo-1'-(phenylmethyl)-3-spiro[2H-pyrano[2,3-c]pyrazole-4,3'-indole]yl]acetic acid methyl ester] | > 50 µM
48 | Cc1ccc(-n2c(SCC(=O)N3CCCC3)nc3c(c2=O)SCC3)cc1 [2-[(2-keto-2-pyrrolidino-ethyl)thio]-3-(p-tolyl)-6,7-dihydrothieno[3,2-d]pyrimidin-4-one] | > 50 µM
49 | CCOC(=O)COc1nc(OC)nc(N2CCOCC2)n1 [2-[(4-methoxy-6-morpholino-s-triazin-2-yl)oxy]acetic acid ethyl ester] | > 50 µM
50 | CCOC(=O)c1c(-c2ccc(C)o2)csc1NC(=O)CN1CCN(CC)CC1 [2-[[2-(4-ethyl-1-piperazinyl)-1-oxoethyl]amino]-4-(5-methyl-2-furanyl)-3-thiophenecarboxylic acid ethyl ester] | > 50 µM
